The structures appear in SMILES notation. Bounds are passed on as bounds.

In one assay the test system is Colo205 cells. In words: Colo-205 cell proliferation assay (resazurin). As to conditions: Homo sapiens; Colo-205 cells, V600E mutation; read-out: Cell Proliferation Inhibition IC50, nM Colo-205. The assay is classed as cell-based. As to the method: (§1) Colo205 cells (catalog #HB-8307) are obtained from the American Type Culture Collection (ATCC, Manassas, Va.). Briefly, cells are grown in RPMI 1640 supplemented with 10% characterized fetal bovine serum (Invitrogen, Carlsbad, Calif.), 1 mM sodium pyruvate, and 1% Penicillin/Streptomycin/L-Glutamine at 37 degrees Celsius, 5% CO2, and 95% humidity. Cells are allowed to expand until reaching 30-60% confluency at which point they are subcultured or harvested for assay use. A serial dilution of test compound is dispensed into a 384-well black clear bottom plate in triplicate. One thousand two-hundred fifty cells are added per well in 50 μL complete growth medium in the 384-well plate. Plates are incubated for 67 hours at 37 degrees Celsius, 5% CO2, and 95% humidity. At the end of the incubation period, 10 μL of a 440 μM solution of resazurin (Sigma, St. Louis, Mo.) in PBS is added to each well of the plate and plates are incubated for an additional 5 hours at 37 degrees Celsius, 5% CO2, and 95% humidity. Plates are read on a Synergy2 reader (Biotek, Winooski, Vt.) using an excitation of 540 nm and an emission of 600 nm. Data is analyzed using Prism software (Graphpad, San Diego, Calif.) to calculate IC50 values.
(§2) The A375, HT-29, and Colo-205 cells (ATCC) harbor a V600E mutation.

The target of the next assay is T1, human wild type C-Raf (Homo sapiens, UniProt P04049).
T1 construct: made in house
T1 sequence (P04049 whole entry): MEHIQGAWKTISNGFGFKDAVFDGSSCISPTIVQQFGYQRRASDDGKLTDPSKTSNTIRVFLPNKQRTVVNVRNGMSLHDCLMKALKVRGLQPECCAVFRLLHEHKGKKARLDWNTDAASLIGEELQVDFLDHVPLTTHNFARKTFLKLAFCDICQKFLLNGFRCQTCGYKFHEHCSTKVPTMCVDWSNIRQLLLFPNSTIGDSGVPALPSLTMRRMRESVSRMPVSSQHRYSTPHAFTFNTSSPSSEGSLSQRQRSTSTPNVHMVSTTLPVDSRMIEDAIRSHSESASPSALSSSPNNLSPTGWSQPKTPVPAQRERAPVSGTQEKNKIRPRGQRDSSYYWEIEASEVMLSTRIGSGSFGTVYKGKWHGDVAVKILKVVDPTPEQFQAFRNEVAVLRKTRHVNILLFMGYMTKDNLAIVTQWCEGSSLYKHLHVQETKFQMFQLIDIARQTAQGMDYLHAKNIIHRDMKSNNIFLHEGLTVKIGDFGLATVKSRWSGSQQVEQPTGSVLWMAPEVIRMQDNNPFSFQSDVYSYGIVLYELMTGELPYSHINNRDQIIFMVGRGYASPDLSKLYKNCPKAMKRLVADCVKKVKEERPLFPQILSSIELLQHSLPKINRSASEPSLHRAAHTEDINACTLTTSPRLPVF
In words: Enzymatic assay of C-Raf kinase activity (Raf/MEK1 ATPase, coupled PK/LDH, A340). As to conditions: read-out: Enzyme IC50, nM C-Raf. The assay is classed as biochemical. As to the method:
Test compounds are evaluated for their inhibitory activities against one or more of human wild type B-Raf, human wild type C-Raf, human B-Raf V600E, human B-Raf V600E+T529I or human B-Raf V600E+G468A. T529I is a threonine to isoleucine B-Raf gatekeeper mutation and G468A is a B-Raf secondary mutation at G1403C in exon 11. The enzymatic assays of B-Raf, C-Raf and B-Raf mutations evaluate a property of Raf and MEK1 complex, which in the presence of ATP, catalyzes an enhanced ATP hydrolysis (Rominger, et al, Arch. Biochem. Biophys. 2007, 464: 130-137; US Patent Publication No. 2006/0211073). The ADP formed is monitored by the well-known coupled PK/LDH (pyruvate kinase/lactate dehydrogenase) system in the form of NADH oxidation, which can be monitored and detected spectrophotometrically by absorbance at 340 nm (A340; for principal of the method see Schindler et al, Science, 2000, 289: 1938-1942). Raf activated MEK1 ATPase activity is a property shared by all forms of Raf proteins.
Test compounds are evaluated for their inhibitory activities against one or more of wild type B-Raf, wild type C-Raf, B-Raf V600E, B-Raf V600E+T529I and B-Raf V600E+G468A. T529I is a B-Raf gatekeeper mutation and G468A is a B-Raf secondary mutation. The enzymatic assays of B-Raf, C-Raf and B-Raf mutations evaluate a property of Raf and MEK1 complex, which in the presence of ATP, catalyzes an enhanced ATP hydrolysis (Rominger, et al, Arch. Biochem. Biophys. 2007, 464: 130-137). The ADP formed is monitored by the well-known coupled PK/LDH (pyruvate kinase/lactate dehydrogenase) system in the form of NADH oxidation, which can be monitored and detected by absorbance at 340 nm (A340; for principal of the method see Schindler et al, Science, 2000, 289: 1938-1942). Raf activated MEK1 ATPase activity is a property shared by all forms of Raf proteins. In the B-Raf wild type enzymatic assay, the reaction mixture contains 1.2 nM B-Raf, 30 nM MEK1, 1000 uM ATP, 3.5 units (per 100 ul) of PK, 5 units (per 100 ul) of LDH, 1 mM phosphoenol pyruvate (PEP), and 280 uM of NADH. In the C-Raf assay, the reaction mixture contains 0.6 nM C-Raf, 26 nM MEK1, 2000 uM ATP, and the same amount of PK, LDH, PEP and NADH as above. In the B-Raf V600E assay, the reaction mixture contains […] B-Raf V600E, 26 nM MEK1, 200 uM ATP and the same amount of PK, LDH, PEP and NADH as above. In the B-RafV600E+T529I assay, the reaction mixture contains 6.2 nM B-Raf V600E+T529I, 30 nM MEK1, 200 uM ATP and the same amount of PK, LDH, PEP and NADH as above. In the B-Raf V600E+G468A assay, the reaction mixture contains 3.5 nM B-Raf, 30 nM MEK1, 200 uM ATP and the same amount of PK, LDH, PEP and NADH as above. All assays are started by mixing the above mixture with test compound and monitoring at A340 continuously for approximately 5 hr. […] In the aforementioned assays, the enzyme constructs can be screened prior to or after cleavage of the N-terminal purification tag.

For the next assay, the system named is HT-29 cells. In words: HT-29 cell proliferation assay (resazurin). The assay is classed as cell-based. The note with it: Homo sapiens, V600E mutation, read-out: Cell Proliferation Inhibition IC50, nM HT-29. As to the method: as §1, with “HT-29” for “Colo205”, “#HTB-38)” for “#HB-8307)”, “McCoy's 5A” for “RPMI 1640”, “Calif.),” for “Calif.), 1 mM sodium pyruvate,”, “75-90%” for “30-60%”
as §2

A further assay relates to Sk-Mel-2 cells. In words: SK-Mel-2 cell proliferation assay (resazurin). In kind it is cell-based. The note with it: Homo sapiens, N-Ras mutation B-Raf wild type, read-out: Cell Proliferation Inhibition IC50, nM SK-Mel-2.
The test system of another assay is HCT-116 cells. In words: HCT-116 cell proliferation assay (resazurin). The assay is classed as cell-based. The note with it: Homo sapiens, K-Ras mutation B-Raf wild type, read-out: Cell Proliferation Inhibition IC50, nM HCT-116.

As to `CNc1ncc2cc(-c3cc(NC(=O)NCCC4(C)CC4)c(F)cc3C)c(C)nc2n1` [Example 24, 1-(2-Fluoro-4-methyl-5-(7-methyl-2-(methylamino)pyrido[2,3-d]pyrimidin-6-yl)phenyl)-3-(2-(1-methylcyclopropyl)ethyl)urea], the IC50 in the assay on Colo205 cells is under 100 nM; on human wild type C-Raf it was under 150 nM; in the assay on HT-29 cells, under 100 nM; in the assay on Sk-Mel-2 cells it was 100 to 1000 nM; in the assay with HCT-116 cells, 100 to 1000 nM.
In the case of `Cc1cc(F)c(NC(=O)NCCC(C)(C)F)cc1-c1cc2cnc(NC3COC3)nc2nc1C` [Example 25, 1-(3-Fluoro-3-methylbutyl)-3-(2-fluoro-4-methyl-5-(7-methyl-2-(oxetan-3-ylamino)pyrido[2,3-d]pyrimidin-6-yl)phenyl)urea], the IC50 in the assay with Colo205 cells was under 100 nM; at human wild type C-Raf, under 150 nM; in the assay with HT-29 cells, under 100 nM; with Sk-Mel-2 cells, 100 to 1000 nM; in the assay with HCT-116 cells, 100 to 1000 nM.
In the case of `CCNc1ncc2cc(-c3cc(NC(=O)NCCC(C)(C)F)c(F)cc3C)c(C)nc2n1` [Example 26, 1-(5-(2-(Ethylamino)-7-methylpyrido[2,3-d]pyrimidin-6-yl)-2-fluoro-4-methylphenyl)-3-(3-fluoro-3-methylbutyl)urea], the IC50 was 100 to 1000 nM in the assay with Colo205 cells; under 150 nM on human wild type C-Raf; under 100 nM in the assay with HT-29 cells; 100 to 1000 nM in the assay on Sk-Mel-2 cells; 1000 to 10000 nM with HCT-116 cells.
On to `CNc1ncc2cc(-c3cc(NC(=O)NCCC(C)(C)C(F)(F)F)c(F)cc3C)c(C)nc2n1` [Example 27, 1-(2-Fluoro-4-methyl-5-(7-methyl-2-(methylamino)pyrido[2,3-d]pyrimidin-6-yl)phenyl)-3-(4,4,4-trifluoro-3,3-dimethylbutyl)urea], for which the IC50 is under 100 nM with Colo205 cells; under 150 nM at human wild type C-Raf; under 100 nM in the assay on HT-29 cells; 100 to 1000 nM in the assay with Sk-Mel-2 cells; 100 to 1000 nM in the assay on HCT-116 cells.
`Cc1cc(F)c(NC(=O)NCCC(C)(C)F)cc1-c1cc2cnc(N)nc2nc1C` [Example 28, 1-(5-(2-Amino-7-methylpyrido[2,3-d]pyrimidin-6-yl)-2-fluoro-4-methylphenyl)-3-(3-fluoro-3-methylbutyl)urea]: the IC50 was 100 to 1000 nM in the assay on Colo205 cells; under 150 nM on human wild type C-Raf; 100 to 1000 nM in the assay on HT-29 cells; 1000 to 10000 nM with Sk-Mel-2 cells; 1000 to 10000 nM in the assay with HCT-116 cells.
In the case of `Cc1cc(F)c(NC(=O)NCCC(C)(C)F)cc1-c1cc2cnc(NCCO)nc2nc1C` [Example 29, 1-(3-Fluoro-3-methylbutyl)-3-(2-fluoro-5-(2-((2-hydroxyethyl)amino)-7-methylpyrido[2,3-d]pyrimidin-6-yl)-4-methylphenyl)urea], the IC50 was 100 to 1000 nM with Colo205 cells; under 150 nM on human wild type C-Raf; 100 to 1000 nM with HT-29 cells; 1000 to 10000 nM with Sk-Mel-2 cells; 1000 to 10000 nM in the assay with HCT-116 cells.
On to `CNc1ncc2cc(-c3cc(NC(=O)NCCC4(C(F)(F)F)CC4)c(F)cc3C)c(C)nc2n1` [Example 30, 1-(2-Fluoro-4-methyl-5-(7-methyl-2-(methylamino)pyrido[2,3-d]pyrimidin-6-yl)phenyl)-3-(2-(1-(trifluoromethyl)cyclopropyl)ethyl)urea], for which the IC50 was under 100 nM with Colo205 cells; under 150 nM at human wild type C-Raf; under 100 nM in the assay on HT-29 cells; 100 to 1000 nM with Sk-Mel-2 cells; 100 to 1000 nM in the assay on HCT-116 cells.
`COCCNc1ncc2cc(-c3cc(NC(=O)NC4CC(C)(C)C4)c(F)cc3C)c(C)nc2n1` [Example 31, 1-(3,3-Dimethylcyclobutyl)-3-(2-fluoro-5-(2-((2-methoxyethyl)amino)-7-methylpyrido[2,3-d]pyrimidin-6-yl)-4-methylphenyl)urea]: the IC50 is under 100 nM in the assay with Colo205 cells; under 150 nM on human wild type C-Raf; under 100 nM with HT-29 cells; 100 to 1000 nM in the assay with Sk-Mel-2 cells; 100 to 1000 nM with HCT-116 cells.
Turning to `CNc1ncc2cc(-c3cc(NC(=O)NCCC(C)(C)C)c(F)cc3Br)c(C)nc2n1` [Example 32, 1-(4-Bromo-2-fluoro-5-(7-methyl-2-(methylamino)pyrido[2,3-d]pyrimidin-6-yl)phenyl)-3-(3,3-dimethylbutyl)urea], the IC50 was under 100 nM in the assay with Colo205 cells; under 150 nM at human wild type C-Raf; under 100 nM in the assay with HT-29 cells; 100 to 1000 nM with Sk-Mel-2 cells; 100 to 1000 nM in the assay on HCT-116 cells.
Turning to `CC(=O)Nc1ncc2cc(-c3cc(NC(=O)NCCC(C)(C)C)c(F)cc3C)c(C)nc2n1` [Example 33, N-(6-(5-(3-(3,3-Dimethylbutyl)ureido)-4-fluoro-2-methylphenyl)-7-methylpyrido[2,3-d]pyrimidin-2-yl)acetamide], the IC50 in the assay on Colo205 cells is under 100 nM; at human wild type C-Raf, under 150 nM; in the assay with HT-29 cells, under 100 nM; in the assay on Sk-Mel-2 cells it was 100 to 1000 nM; in the assay on HCT-116 cells, 100 to 1000 nM.
For `CNc1ncc2cc(-c3cc(NC(=O)NCCC(C)(C)F)c(F)cc3C)cnc2n1` [Example 34, 1-(3-Fluoro-3-methyl-butyl)-3-[2-fluoro-4-methyl-5-(2-methylaminopyrido[2,3-d]pyrimidin-6-yl)phenyl]urea], the IC50 was 100 to 1000 nM in the assay on Colo205 cells; under 150 nM on human wild type C-Raf; under 100 nM with HT-29 cells; 100 to 1000 nM with Sk-Mel-2 cells; 100 to 1000 nM with HCT-116 cells.

(Values after patent US9334267B2, “RAF inhibitor compounds” (Deciphera Pharmaceuticals, LLC, priority 2012, dated 2016).)
